# System: platelets
# Experiment: Platelet shape change
# Assay type: cell-based, human
# Conditions: T = test unit (150 µM S-59, 3 Joules/cm^2 UVA, RD 8 hours on day 1)
# Experimental: Platelets are able to regain their ability to change shape following transfer from the RD and incubation in a PL 2410 Plastic container (Baxter) in an equal volume of autologous plasma.
# For the evaluation of in vitro platelet function, platelet samples were withdrawn from both the control and test units before treatment and after treatment on days 2, 5, and 7. The following parameters were analyzed: pH, pO2, pCO2, bicarbonate concentration, platelet count, morphology, aggregation, platelet shape change, hypotonic shock response, lactate production, glucose consumption, ATP secretion, p-selectin expression, and microvesicle formation. Several of these assays, including pH, morphology score, platelet shape change, and hypotonic shock response, have been reported in the literature to correlate with in- vivo post-transfusion recovery and survival. The Student's paired t-test was used for statistical analysis.
smiles,measurement,setting,value
"Cc1oc2c(C)c3oc(=O)cc(C)c3cc2c1COCCN [Compound 2, 4'-(4-amino-2-oxa)butyl-4,5',8-trimethylpsoralen]",Platelet Shape Change,Day 2,1.0±0.1
same,Platelet Shape Change,Day 5,0.9±0.1
same,Platelet Shape Change,Day 7,0.9±0.3
